The values that follow come from patent US12448389B2, “BRM targeting compounds and associated methods of use” (Prelude Therapeutics Incorporated, priority 2020, dated 2025).

Usually DC50 stands for the midpoint of the concentration-degradation curve. One may read the Dmax as the greatest extent of degradation seen.

In one assay the target is T1, SMARCA4-HiBiT (Homo sapiens, UniProt P51532).
T1 construct: SMARCA4-HiBiT knock-in Hela monoclonal cell (CS3023226); host or cells: HeLa monoclonal knock-in line (CRISPR HiBiT knock-in at the endogenous locus, heterozygous)
T1 sequence (P51532 whole entry): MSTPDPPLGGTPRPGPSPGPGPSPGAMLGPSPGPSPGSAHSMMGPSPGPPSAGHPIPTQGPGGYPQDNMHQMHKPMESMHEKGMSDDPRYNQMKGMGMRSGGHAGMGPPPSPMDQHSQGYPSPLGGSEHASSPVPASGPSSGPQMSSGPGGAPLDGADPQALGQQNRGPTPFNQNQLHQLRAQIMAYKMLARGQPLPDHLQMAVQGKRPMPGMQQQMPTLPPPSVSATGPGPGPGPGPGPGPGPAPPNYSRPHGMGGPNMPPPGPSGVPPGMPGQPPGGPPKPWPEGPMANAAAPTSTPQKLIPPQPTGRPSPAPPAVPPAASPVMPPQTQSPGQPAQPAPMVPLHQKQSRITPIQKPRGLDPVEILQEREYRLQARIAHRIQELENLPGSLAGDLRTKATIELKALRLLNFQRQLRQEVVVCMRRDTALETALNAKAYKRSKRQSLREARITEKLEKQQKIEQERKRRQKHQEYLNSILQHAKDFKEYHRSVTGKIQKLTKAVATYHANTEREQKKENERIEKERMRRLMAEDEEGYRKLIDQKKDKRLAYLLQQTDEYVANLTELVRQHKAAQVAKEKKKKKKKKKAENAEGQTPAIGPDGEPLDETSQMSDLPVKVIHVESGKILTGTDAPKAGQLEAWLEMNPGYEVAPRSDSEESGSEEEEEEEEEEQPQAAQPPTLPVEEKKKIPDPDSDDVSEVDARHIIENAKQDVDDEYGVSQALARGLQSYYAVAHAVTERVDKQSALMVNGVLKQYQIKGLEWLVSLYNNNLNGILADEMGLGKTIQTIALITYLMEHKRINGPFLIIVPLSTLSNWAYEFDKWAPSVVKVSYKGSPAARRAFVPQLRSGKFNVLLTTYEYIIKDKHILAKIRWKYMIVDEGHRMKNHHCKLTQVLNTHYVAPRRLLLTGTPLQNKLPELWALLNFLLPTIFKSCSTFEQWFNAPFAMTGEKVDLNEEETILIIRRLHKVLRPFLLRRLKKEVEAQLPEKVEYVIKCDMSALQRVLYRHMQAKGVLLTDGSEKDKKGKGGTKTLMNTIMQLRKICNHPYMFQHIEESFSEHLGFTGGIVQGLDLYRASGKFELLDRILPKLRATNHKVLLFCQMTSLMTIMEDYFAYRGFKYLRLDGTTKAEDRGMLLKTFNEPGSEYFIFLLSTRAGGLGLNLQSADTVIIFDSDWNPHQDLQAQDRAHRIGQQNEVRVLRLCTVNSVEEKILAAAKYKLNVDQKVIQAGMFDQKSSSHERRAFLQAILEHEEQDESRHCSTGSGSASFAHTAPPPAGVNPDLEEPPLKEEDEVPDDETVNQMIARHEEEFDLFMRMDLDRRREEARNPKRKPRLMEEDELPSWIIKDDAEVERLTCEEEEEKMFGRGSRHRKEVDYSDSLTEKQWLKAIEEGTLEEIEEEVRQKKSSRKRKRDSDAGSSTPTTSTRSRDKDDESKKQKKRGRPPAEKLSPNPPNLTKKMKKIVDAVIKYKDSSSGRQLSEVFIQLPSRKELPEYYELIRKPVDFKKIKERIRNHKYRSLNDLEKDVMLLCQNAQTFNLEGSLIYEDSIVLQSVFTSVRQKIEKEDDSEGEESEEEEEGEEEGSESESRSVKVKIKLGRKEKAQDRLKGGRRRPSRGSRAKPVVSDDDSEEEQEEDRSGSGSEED
Put plainly: SMARCA4 HiBiT degradation assay in HeLa cells. Particulars: 18 hours incubation; for DC50: read-out: HeLa-HiBit-SM4 DC50; for Dmax: HeLa, read-out: HeLa-HiBit-SM4 Dmax (%). Format: cell-based. The essentials: (§1)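 HeLa monoclonal lines with heterozygous HiBiT knock-in were seeded at 2500 cells/well in EMEM with 10% FBS and treated with compound for 18 h at 37 °C. Remaining tagged protein was measured by Nano-Glo HiBiT lytic luminescence after 30–60 min at RT, and values came from curve fitting.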

The target of another assay is T2, SMARCA2-HiBiT (Homo sapiens, UniProt P51531).
T2 construct: SMARCA2-HiBiT knock-in Hela monoclonal cell (CS302366); host or cells: HeLa monoclonal knock-in line (CRISPR HiBiT knock-in at the endogenous locus, heterozygous)
T2 sequence (P51531 whole entry): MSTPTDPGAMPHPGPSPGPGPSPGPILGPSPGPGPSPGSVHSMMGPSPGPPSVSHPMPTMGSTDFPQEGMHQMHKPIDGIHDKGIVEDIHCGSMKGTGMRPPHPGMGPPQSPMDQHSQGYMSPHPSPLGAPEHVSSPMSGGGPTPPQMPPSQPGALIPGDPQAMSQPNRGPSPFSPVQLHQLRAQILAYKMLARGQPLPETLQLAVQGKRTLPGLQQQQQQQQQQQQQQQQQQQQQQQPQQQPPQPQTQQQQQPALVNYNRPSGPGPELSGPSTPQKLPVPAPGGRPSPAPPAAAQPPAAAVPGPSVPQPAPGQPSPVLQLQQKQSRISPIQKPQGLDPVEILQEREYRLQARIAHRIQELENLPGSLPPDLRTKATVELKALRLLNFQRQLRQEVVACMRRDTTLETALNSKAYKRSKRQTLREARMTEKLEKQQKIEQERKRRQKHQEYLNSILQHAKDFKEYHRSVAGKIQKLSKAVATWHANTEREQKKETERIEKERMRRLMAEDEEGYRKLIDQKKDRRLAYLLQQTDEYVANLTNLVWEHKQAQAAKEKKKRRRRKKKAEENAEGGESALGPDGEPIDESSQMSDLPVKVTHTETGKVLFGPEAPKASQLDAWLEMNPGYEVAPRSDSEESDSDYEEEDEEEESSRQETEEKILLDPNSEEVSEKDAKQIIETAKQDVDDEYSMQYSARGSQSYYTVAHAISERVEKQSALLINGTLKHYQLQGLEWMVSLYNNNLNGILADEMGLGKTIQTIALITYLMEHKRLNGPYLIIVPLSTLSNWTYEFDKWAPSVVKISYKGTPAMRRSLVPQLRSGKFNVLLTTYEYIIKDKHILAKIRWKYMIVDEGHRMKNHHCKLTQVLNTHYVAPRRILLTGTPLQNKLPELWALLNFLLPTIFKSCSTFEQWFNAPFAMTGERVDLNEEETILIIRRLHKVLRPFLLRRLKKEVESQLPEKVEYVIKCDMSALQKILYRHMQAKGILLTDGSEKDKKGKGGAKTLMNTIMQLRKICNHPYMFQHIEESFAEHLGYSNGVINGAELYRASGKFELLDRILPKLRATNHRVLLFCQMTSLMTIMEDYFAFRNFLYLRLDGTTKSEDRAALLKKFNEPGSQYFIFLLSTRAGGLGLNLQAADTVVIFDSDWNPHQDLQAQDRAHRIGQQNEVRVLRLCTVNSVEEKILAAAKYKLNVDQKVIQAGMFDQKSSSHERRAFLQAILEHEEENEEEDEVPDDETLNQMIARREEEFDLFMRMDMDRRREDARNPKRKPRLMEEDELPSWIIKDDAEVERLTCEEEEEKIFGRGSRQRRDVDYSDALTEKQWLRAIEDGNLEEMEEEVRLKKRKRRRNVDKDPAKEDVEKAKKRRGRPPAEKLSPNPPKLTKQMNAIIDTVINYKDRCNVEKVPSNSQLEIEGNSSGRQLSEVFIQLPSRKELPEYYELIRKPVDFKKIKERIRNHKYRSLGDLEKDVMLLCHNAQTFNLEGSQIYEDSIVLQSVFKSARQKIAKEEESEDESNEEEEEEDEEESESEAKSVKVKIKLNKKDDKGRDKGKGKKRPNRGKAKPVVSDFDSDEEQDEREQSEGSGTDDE
Put plainly: SMARCA2 HiBiT degradation assay in HeLa cells. Format: cell-based. Particulars: 18 hours incubation; for DC50: read-out: HeLa_HiBit-SM2 DC50; for Dmax: HeLa, read-out: HeLa-HiBit-SM2 Dmax (%). The essentials: as §1

Consider `O=C1CCC(N2C(=O)c3cccc(NCCCN4CCC(N5CCN6c7cc(-c8ccccc8O)nnc7NC[C@H]6C5)CC4)c3C2=O)C(=O)N1` (stereo partly drawn) [Example 70, 2-(2,6-dioxopiperidin-3-yl)-4-((3-(4-((S)-2-(2-hydroxyphenyl)-5,6,6a,7,9,10-hexahydro-8H-pyrazino[1′,2′:4,5]pyrazino[2,3-c]pyridazin-8-yl)piperidin-1-yl)propyl)amino)isoindoline-1,3-dione], for which, on SMARCA4-HiBiT, the DC50 is under 0.01 µM and the Dmax is over 85%. At SMARCA2-HiBiT, the DC50 is under 0.01 µM and the maximal degradation (Dmax) was over 85%.

With `C[C@@H](CN1CCC(N2CCN3c4cc(-c5ccccc5O)nnc4NC[C@H]3C2)CC1)Nc1cccc2c1C(=O)N(C1CCC(=O)NC1=O)C2=O` (stereo partly drawn) [Example 71, 2-(2,6-dioxopiperidin-3-yl)-4-(((S)-1-(4-((S)-2-(2-hydroxyphenyl)-5,6,6a,7,9,10-hexahydro-8H-pyrazino[1′,2′:4,5]pyrazino[2,3-c]pyridazin-8-yl)piperidin-1-yl)propan-2-yl)ammo)isoindoline-1,3-dione], the DC50 at SMARCA4-HiBiT and on SMARCA2-HiBiT was under 0.01 µM throughout. Further, the Dmax at SMARCA4-HiBiT and on SMARCA2-HiBiT was 75 to 85% throughout.

As to `O=C1CCC(N2C(=O)c3cccc(N4CCC(CCCN5CCC6(CCC(N7CCN8c9cc(-c%10ccccc%10O)nnc9NC[C@H]8C7)CC6)CC5)CC4)c3C2=O)C(=O)N1` (stereo partly drawn) [Example 72, 2-(2,6-dioxopiperidin-3-yl)-4-(4-(3-(9-((S)-2-(2-hydroxyphenyl)-5,6,6a,7,9,10-hexahydro-8H-pyrazino[1′,2′:4,5]pyrazino[2,3-c]pyridazin-8-yl)-3-azaspiro[5.5]undecan-3-yl)propyl)piperidin-1-yl)isoindoline-1,3-dione], at SMARCA4-HiBiT, the DC50 is under 0.01 µM and the Dmax was 50 to 75%. Moreover, at SMARCA2-HiBiT, the DC50 is under 0.01 µM and the maximal degradation (Dmax) was in the range of 75 to 85%.

Turning to `O=C1CCC(N2C(=O)c3cccc(N4CCC(CCCN5CCC(N6CCN7c8cc(-c9ccccc9O)nnc8NC[C@H]7C6)C(F)C5)CC4)c3C2=O)C(=O)N1` (stereo partly drawn) [Example 73, 2-(2,6-dioxopiperidin-3-yl)-4-(4-(3-(3-fluoro-4-((S)-2-(2-hydroxyphenyl)-5,6,6a,7,9,10-hexahydro-8H-pyrazino[1′,2′:4,5]pyrazino[2,3-c]pyridazin-8-yl)piperidin-1-yl)propyl)piperidin-1-yl)isoindoline-1,3-], at SMARCA4-HiBiT, the DC50 was under 0.01 µM and the Dmax fell in the range of 50 to 75%. Also, on SMARCA2-HiBiT, the 50% degradation concentration (DC50) is under 0.01 µM and the maximal degradation (Dmax) is 75 to 85%.

For the compound `O=C1CCC(N2C(=O)c3ccc(N4CCC(CN5CCO[C@@H](CN6CCN7c8cc(-c9ccccc9O)nnc8NC[C@H]7C6)C5)CC4)cc3C2=O)C(=O)N1` (stereo partly drawn) [Example 74], at SMARCA4-HiBiT, the half-maximal degradation concentration (DC50) was under 0.01 µM and the maximal degradation (Dmax) was over 85%. For the same compound, on SMARCA2-HiBiT, the half-maximal degradation concentration (DC50) was under 0.01 µM and the Dmax was over 85%.

`O=C1CCC(N2C(=O)c3ccc(N4CCC(CN5CCO[C@H](CN6CCN7c8cc(-c9ccccc9O)nnc8NC[C@H]7C6)C5)CC4)cc3C2=O)C(=O)N1` (stereo partly drawn) [Example 75, 2-(2,6-dioxopiperidin-3-yl)-5-(4-(((R)-2-(((S)-2-(2-hydroxyphenyl)-5,6,6a,7,9,10-hexahydro-8H-pyrazino[1′,2′:4,5]pyrazino[2,3-c]pyridazin-8-yl)methyl)morpholino)methyl)piperidin-1-yl)isoindoline-1,3-dione]: at SMARCA4-HiBiT, the half-maximal degradation concentration (DC50) was under 0.01 µM and the Dmax was in the range of 75 to 85%. Also, on SMARCA2-HiBiT, the DC50 was under 0.01 µM and the Dmax was in the range of 75 to 85%.

As for `O=C1CCC(N2C(=O)c3ccc(N4CCC(N[C@H]5C[C@@H](CN6CCN7c8cc(-c9ccccc9O)nnc8NC[C@H]7C6)C5)CC4)cc3C2=O)C(=O)N1` (stereo partly drawn) [Example 76, 2-(2,6-dioxopiperidin-3-yl)-5-(4-(((1R,3s)-3-(((S)-2-(2-hydroxyphenyl)-5,6,6a,7,9,10-hexahydro-8H-pyrazino[1′,2′:4,5]pyrazino[2,3-c]pyridazin-8-yl)methyl)cyclobutyl)amino)piperidin-1-yl)isoindoline-1,3-dione], on SMARCA4-HiBiT, the 50% degradation concentration (DC50) was under 0.01 µM and the Dmax is over 85%. Moreover, on SMARCA2-HiBiT, the half-maximal degradation concentration (DC50) was under 0.01 µM and the maximal degradation (Dmax) was over 85%.

Regarding `O=C1CCC(N2C(=O)c3ccc(N4CCC(N[C@H]5C[C@H](CN6CCN7c8cc(-c9ccccc9O)nnc8NC[C@H]7C6)C5)CC4)cc3C2=O)C(=O)N1` (stereo partly drawn) [Example 77, 2-(2,6-dioxopiperidin-3-yl)-5-(4-(((1S,3r)-3-(((S)-2-(2-hydroxyphenyl)-5,6,6a,7,9,10-hexahydro-8H-pyrazino[1′,2′:4,5]pyrazino[2,3-c]pyridazin-8-yl)methyl)cyclobutyl)amino)piperidin-1-yl)isoindoline-1,3-dione], at SMARCA4-HiBiT, the 50% degradation concentration (DC50) was under 0.01 µM and the Dmax is over 85%. Besides, at SMARCA2-HiBiT, the half-maximal degradation concentration (DC50) is under 0.01 µM and the maximal degradation (Dmax) is over 85%.

Turning to `O=C1CCC(N2C(=O)c3ccc(N4CCC(CN[C@H]5C[C@@H](CN6CCN7c8cc(-c9ccccc9O)nnc8NC[C@H]7C6)C5)CC4)cc3C2=O)C(=O)N1` (stereo partly drawn) [Example 78, 2-(2,6-dioxopiperidin-3-yl)-5-(4-((((1R,3s)-3-(((S)-2-(2-hydroxyphenyl)-5,6,6a,7,9,10-hexahydro-8H-pyrazino[1′,2′:4,5]pyrazino[2,3-c]pyridazin-8-yl)methyl)cyclobutyl)amino)methyl)piperidin-1-yl)isoindolme-1,3-dione], on SMARCA4-HiBiT, the DC50 is under 0.01 µM and the maximal degradation (Dmax) is over 85%. Also, at SMARCA2-HiBiT, the DC50 was under 0.01 µM and the Dmax was over 85%.

As for `O=C1CCC(N2C(=O)c3ccc(N4CCCC(CN5CCO[C@@H](CN6CCN7c8cc(-c9ccccc9O)nnc8NC[C@H]7C6)C5)C4)cc3C2=O)C(=O)N1` (stereo partly drawn) [Example 79, 2-(2,6-dioxopiperidin-3-yl)-5-(3-(((S)-2-(((S)-2-(2-hydroxyphenyl)-5,6,6a,7,9,10-hexahydro-8H-pyrazino[1′,2′:4,5]pyrazino[2,3-c]pyridazin-8-yl)methyl)morpholino)methyl)piperidin-1-yl)isoindoline-1,3-dione], at SMARCA4-HiBiT, the half-maximal degradation concentration (DC50) is under 0.01 µM and the Dmax was 75 to 85%. Besides, on SMARCA2-HiBiT, the DC50 was under 0.01 µM and the Dmax is 75 to 85%.

Turning to `O=C1CCC(N2C(=O)c3ccc(N4CCC(CN5CCC(NC(=O)N6CCN7c8cc(-c9ccccc9O)nnc8NC[C@H]7C6)CC5)CC4)cc3C2=O)C(=O)N1` (stereo partly drawn) [Example 80, (6aS)-N-(1-((1-(2-(2,6-dioxopiperidin-3-yl)-1,3-dioxoisoindolin-5-yl)piperidin-4-yl)methyl)piperidin-4-yl)-2-(2-hydroxyphenyl)-5,6,6a,7,9,10-hexahydro-8H-pyrazino[1′,2′:4,5]pyrazino[2,3-c]pyridazine-8-carboxamide], at SMARCA4-HiBiT, the half-maximal degradation concentration (DC50) was under 0.01 µM and the Dmax was over 85%. At SMARCA2-HiBiT, the DC50 is under 0.01 µM and the greatest degradation seen (Dmax) was over 85%.

As for `O=C1CCC(N2C(=O)c3ccc(N4CCC(CNC56CCC(C(=O)N7CCN8c9cc(-c%10ccccc%10O)nnc9NC[C@H]8C7)(CC5)CC6)CC4)cc3C2=O)C(=O)N1` (stereo partly drawn) [Example 81, 2-(2,6-dioxopiperidin-3-yl)-5-(4-(((4-((S)-2-(2-hydroxyphenyl)-6,6a,7,8,9,10-hexahydro-5H-pyrazino[1′,2′:4,5]pyrazino[2,3-c]pyridazine-8-carbonyl)bicyclo[2.2.2]octan-1-yl)amino)methyl)piperidin-1-yl)isoindoline-1dione], at SMARCA4-HiBiT, the DC50 was under 0.01 µM and the maximal degradation (Dmax) was in the range of 75 to 85%. Also, on SMARCA2-HiBiT, the DC50 is under 0.01 µM and the Dmax lay within 75 to 85%.

`O=C1CCC(N2C(=O)c3ccc(N4CC(CN5CCN(C(=O)N6CCN7c8cc(-c9ccccc9O)nnc8NC[C@H]7C6)CC5)C4)cc3C2=O)C(=O)N1` (stereo partly drawn) [Example 82, 2-(2,6-dioxopiperidin-3-yl)-5-(3-((4-((S)-2-(2-hydroxyphenyl)-6,6a,7,8,9,10-hexahydro-511-pyrazino[1′,2′:4,5]pyrazino[2,3-c]pyridazine-8-carbonyl)piperazin-1-yl)methyl)azetidin-1-yl) isoindoline-1,3-dione]: at SMARCA4-HiBiT, the 50% degradation concentration (DC50) is under 0.01 µM and the greatest degradation seen (Dmax) lay in the range of 50 to 75%. Moreover, at SMARCA2-HiBiT, the DC50 is under 0.01 µM and the Dmax is 75 to 85%.

For the compound `O=C1CCC(N2Cc3cc(N4CCC(CN5CCC(OC(=O)N6CCN7c8cc(-c9ccccc9O)nnc8NC[C@H]7C6)CC5)CC4)ccc3C2=O)C(=O)N1` (stereo partly drawn) [Example 83, 1-((1-(2-(2,6-dioxopiperidin-3-yl)-1-oxoisoindolin-5-yl)piperidin-4-yl)methyl)piperidin-4-yl (6aS)-2-(2-hydroxyphenyl)-5,6,6a,7,9,10-hexahydro-8H-pyrazino[1′,2′:4,5]pyrazino[2,3-c]pyridazine-8-carboxylate], on SMARCA4-HiBiT, the DC50 was under 0.01 µM and the Dmax lay in the range of 75 to 85%. Also, on SMARCA2-HiBiT, the half-maximal degradation concentration (DC50) is under 0.01 µM and the Dmax is over 85%.

Regarding `O=C1CCC(N2Cc3cc(N4CCC(CNC56CCC(C(=O)N7CCN8c9cc(-c%10ccccc%10O)nnc9NC[C@H]8C7)(CC5)CC6)CC4)ccc3C2=O)C(=O)N1` (stereo partly drawn) [Example 84, 3-(5-(4-(((4-((S)-2-(2-hydroxyphenyl)-6,6a,7,8,9,10-hexahydro-5H-pyrazino[1 ′,2′:4,5]pyrazino[2,3-c]pyridazine-8-carbonyl)bicyclo[2.2.2]octan-1-yl)amino)methyl)piperidin-1-yl)-1-oxoisoindolin-2-yl)piperidine-2,6-dione], the DC50 on SMARCA4-HiBiT and at SMARCA2-HiBiT was under 0.01 µM in each case. The Dmax on SMARCA4-HiBiT was 75 to 85%; at SMARCA2-HiBiT it was over 85%.
